Among the data in US20250195661A1, “NIR-responsive stem cell-derived inflammation attenuating complex and use thereof” (priority 2023, published 2025) are hydrodynamic size and surface charge values, retold here.

This data set is described as follows: Hydrodynamic size and potential analysis. It counts as physicochemical. As for the experimental part: The hydrodynamic size distribution and electrical potential of nanomedicines including AuS-TA were evaluated using a Litesizer 500 (Anton Paar) according to the manufacturer's instructions. AuS and TA non-covalently attached to AuS were quantified by determining absorbance using UV-vis spectrophotometry (Biochrom). […] Therefore, the TA amount of Edu-MSCs-AuS-TA was measured based on the AuS-TA ratio of AuS and TA. The concentration of each solution was extrapolated using the linear standard curve for AuS and TA. The morphology, crystallinity, and EDS mapping of AuS-PEG and AuS-TA complexes were analyzed using TEM (F30, Tecnai, USA) and STEM (JEM-ARM200F, JEOL, Japan).

As for `C[C@]12C=CC(=O)C=C1CC[C@H]1[C@@H]3C[C@@H](O)[C@](O)(C(=O)CO)[C@@]3(C)C[C@H](O)[C@@]12F` [TA, triamcinolone], the hydrodynamic size is given as 77 nm and the surface charge result is on record as “close to neutral”.
